Laboratory results from article PMC11124822, “Discovery and Anticancer Screening of Novel Oxindole-Based Derivative Bearing Pyridyl Group as Potent and Selective Dual FLT3/CDK2 Kinase Inhibitor” (Pharmaceuticals, 2024).

What was measured:
Experiment in all cases: NCI-60 antiproliferative screen (SRB)
[1] = system: CCRF-CEM; assay type: cell-based, human; details: Homo sapiens; 10 µM single dose, 48 h; CCRF-CEM (Leukemia); read-out: Growth inhibition (%)
[2] = system: K-562; assay type: cell-based, human; details: Homo sapiens, K562; 10 µM single dose, 48 h; K-562 (Leukemia); read-out: Growth inhibition (%)
[3] = system: RPMI-8226; assay type: cell-based, human; details: Homo sapiens; 10 µM single dose, 48 h; RPMI-8226 (Leukemia); read-out: Growth inhibition (%)
[4] = system: A549/ATCC; assay type: cell-based, human; details: Homo sapiens; 10 µM single dose, 48 h; A549/ATCC (NSCLC); read-out: Growth inhibition (%)
[5] = system: HOP-92; assay type: cell-based, human; details: Homo sapiens; 10 µM single dose, 48 h; HOP-92 (NSCLC); read-out: Growth inhibition (%)
[6] = system: NCI-H460; assay type: cell-based, human; details: Homo sapiens; 10 µM single dose, 48 h; NCI-H460 (NSCLC); read-out: Growth inhibition (%)
[7] = system: HCT-116; assay type: cell-based, human; details: Homo sapiens; 10 µM single dose, 48 h; HCT-116 (Colon); read-out: Growth inhibition (%)
[8] = system: SF-268; assay type: cell-based, human; details: Homo sapiens; 10 µM single dose, 48 h; SF-268 (CNS); read-out: Growth inhibition (%)
[9] = system: SF-295; assay type: cell-based, human; details: Homo sapiens; 10 µM single dose, 48 h; SF-295 (CNS); read-out: Growth inhibition (%)
[10] = system: U251; assay type: cell-based, human; details: Homo sapiens, U-251; 10 µM single dose, 48 h; U251 (CNS); read-out: Growth inhibition (%)
[11] = system: SK-MEL-2; assay type: cell-based, human; details: Homo sapiens; 10 µM single dose, 48 h; SK-MEL-2 (Melanoma); read-out: Growth inhibition (%)
[12] = system: SK-MEL-28; assay type: cell-based, human; details: Homo sapiens; 10 µM single dose, 48 h; SK-MEL-28 (Melanoma); read-out: Growth inhibition (%)
[13] = system: UACC-257; assay type: cell-based, human; details: Homo sapiens; 10 µM single dose, 48 h; UACC-257 (Melanoma); read-out: Growth inhibition (%)
[14] = system: OVCAR-5; assay type: cell-based, human; details: Homo sapiens; 10 µM single dose, 48 h; OVCAR-5 (Ovarian); read-out: Growth inhibition (%)
[15] = system: OVCAR-8; assay type: cell-based, human; details: Homo sapiens; 10 µM single dose, 48 h; OVCAR-8 (Ovarian); read-out: Growth inhibition (%)
[16] = system: NCI/ADR-RES; assay type: cell-based, human; details: Homo sapiens; 10 µM single dose, 48 h; NCI/ADR-RES (Ovarian); read-out: Growth inhibition (%)
[17] = system: 786-0; assay type: cell-based, human; details: Homo sapiens; 10 µM single dose, 48 h; 786-0 (Renal); read-out: Growth inhibition (%)
[18] = system: A498; assay type: cell-based, human; details: Homo sapiens; 10 µM single dose, 48 h; A498 (Renal); read-out: Growth inhibition (%)
[19] = system: ACHN; assay type: cell-based, human; details: Homo sapiens; 10 µM single dose, 48 h; ACHN (Renal); read-out: Growth inhibition (%)
[20] = system: RXF 393; assay type: cell-based, human; details: Homo sapiens; 10 µM single dose, 48 h; RXF 393 (Renal); read-out: Growth inhibition (%)
[21] = system: TK-10; assay type: cell-based, human; details: Homo sapiens; 10 µM single dose, 48 h; TK-10 (Renal); read-out: Growth inhibition (%)
[22] = system: PC-3; assay type: cell-based, human; details: Homo sapiens; 10 µM single dose, 48 h; PC-3 (Prostate); read-out: Growth inhibition (%)
[23] = system: DU-145; assay type: cell-based, human; details: Homo sapiens; 10 µM single dose, 48 h; DU-145 (Prostate); read-out: Growth inhibition (%)
[24] = system: MCF7; assay type: cell-based, human; details: Homo sapiens; 10 µM single dose, 48 h; MCF7 (Breast); read-out: Growth inhibition (%)
[25] = system: MDA-MB-231; assay type: cell-based, human; details: Homo sapiens; 10 µM single dose, 48 h; MDA-MB-231 (Breast); read-out: Growth inhibition (%)
[26] = system: HS 578T; assay type: cell-based, human; details: Homo sapiens; 10 µM single dose, 48 h; HS 578T (Breast); read-out: Growth inhibition (%)
[27] = system: BT-549; assay type: cell-based, human; details: Homo sapiens; 10 µM single dose, 48 h; BT-549 (Breast); read-out: Growth inhibition (%)
[28] = system: MDA-MB-468; assay type: cell-based, human; details: Homo sapiens; 10 µM single dose, 48 h; MDA-MB-468 (Breast); read-out: Growth inhibition (%)
[29] = system: OVCAR-4; details: Homo sapiens, OVCAR-4, 48 h, read-out: Growth inhibition (%)
Procedure: Anticancer activity was tested against 60 cancer cell lines (NCI-60) after 48h treatments with a single dosage of 10 μM of compounds by using sulforhodamine B assay [39] on the traditional 96-well platform. […] The human cancer cell lines of the NCI-60 panel are grown in RPMI 1640 medium supplemented with 5% FBS (fetal bovine serum) and 2 mM L-glutamine. […] For further analysis of promising compounds, five dose screens were performed against the NCI-60 panel. Drug treatments are performed in 5 doses using 10-fold or ½ log dose dilutions.

In the case of `O=C1Nc2ccccc2C1=Cc1ccc(OCc2cccnc2)cc1` (mixture of isomers) [Compound 5i, (E/Z)-3-[4-(Pyridin-3-ylmethoxy)benzylidene]indolin-2-one], the inhibition at 10 µM [1] is reported as 52.4%, the inhibition at 10 µM [2] is reported as 75.9% and the inhibition at 10 µM [3] is reported as 45.4%. The inhibition at 10 µM [4] was 26.2%, the inhibition at 10 µM [5] was 35.4% and the inhibition at 10 µM [6] was 21.7%. The inhibition at 10 µM [7] was 56.5%, the inhibition at 10 µM [8] was -19.6% and the inhibition at 10 µM [9] was 31.2%. The inhibition at 10 µM [10] was 53.2%, the inhibition at 10 µM [11] was 24.1% and the inhibition at 10 µM [12] was -2.65%. The inhibition at 10 µM [13] was 30.5%, the inhibition at 10 µM [14] was -27.6% and the inhibition at 10 µM [15] was 47.2%. It also gave an inhibition at 10 µM [16] of 55%, an inhibition at 10 µM [17] of 17.2% and an inhibition at 10 µM [18] of -17.8%. It also gave an inhibition at 10 µM [19] of 37.5%, an inhibition at 10 µM [20] of 24.9% and an inhibition at 10 µM [21] of -15.7%. The inhibition at 10 µM [22] was 29.8%, the inhibition at 10 µM [23] was 39.8% and the inhibition at 10 µM [24] was 58%. For the same molecule, the inhibition at 10 µM [25] was 35.4%, the inhibition at 10 µM [26] was 17.6% and the inhibition at 10 µM [27] was 53.2%. It also gave an inhibition at 10 µM [28] of 51.2% and an inhibition at 10 µM [29] of 37.8%.
